Source: patent publication US20160228446A1, “Combination Drug Therapy” (GLAXOSMITHKLINE LLC, priority 2013, published 2016)

Legend:
[1] = system: LNCaP prostate cancer cells; assay: Cell proliferation assay (CellTiter-Glo, total cellular ATP); type: cell-based; conditions: single agent; charcoal-stripped serum, 0.1 nM R1881, 7 days; percentage of DMSO-treated control
Experimental: Cells were grown in charcoal-stripped serum to deplete potential androgen from serum. Under these conditions, cell growth is dependent on exogenous androgen (e.g., R1881).
Androgen-dependent prostate cancer cell line, LNCaP, were grown in RPMI 1640 culture medium supplemented with 10% charcoal-stripped fetal bovine serum for 24 hours in 96-well tissue culture plates at a density of 1,000 cells per well. Cells were treated with various concentrations of compounds A or B alone and in combination in the presence of synthetic androgen (R1881, Sigma-Aldrich, St. Louis, Mo.). After 7 days, total cellular ATP was measured using the CellTiter-Glo Luminescent Cell Viability Assay (Promega, Madison, Wis.) on an EnVision plate reader. Background counts from wells containing no cells were subtracted and the data is presented as a percentage of the DMSO-treated control cells.

LNCaP cells = assay: Luminescent caspase 3/7 assay; type: cell-based; conditions: single agent 5 uM, five days, normalized to ATP signal
Experimental: Caspase 3/7 activity was normalized and plotted as a percentage of the untreated control samples. Data for 2 independent experiments (N=1, N=2) is shown and represents mean±std dev from duplicate treatments. Tumor cells were seeded in 96-well white tissue culture plates in 100 μL growth media (media with 10% FBS) or CSS media (media with 10% charcoal stripped fetal bovine serum). LNCaP cells were seeded at a density of 1,000 cells per well. Approximately 24 hr after plating, duplicate or triplicate plates of cells were treated with indicated compounds for both luminescent caspase-3/7 and CTG readings. At the end of the 5 days of incubations, half of the plates were lysed and caspase-3/7 activity was measured using the Caspase-Glo® 3/7 Assay (Promega) according to the manufacturer's protocol. Caspase-Glo reagent was added to each plate, incubated for at least 45 minutes, and luminescent signal was read on the EnVision Multilabel Plate Reader with a 0.1 sec integration time. The remaining plates were lysed and ATP levels were measured using the CTG assay. The caspase-3/7 signal was normalized to the ATP signal. The normalized values were expressed as a percentage of the control wells.

[2] = system: prostate cancer xenograft models; conditions: in vivo; cited from earlier work
androgen receptor = androgen receptor (Homo sapiens, UniProt P10275); conditions: cited from earlier work
phospho-AKT = assay: Immunoblot assay, AKT phosphorylation; type: cell-based; conditions: LNCaP cells, Compound B 3 or 10 uM, 0.1 nM R1881, six hours
Experimental: LNCaP cells were treated with Compound B (3 or 10 uM) alone or in presence of compound A (3 uM), all in presence of 0.1 nM synthetic androgen (R1881).
LNCaP cells were grown in RPMI 1640 culture medium supplemented with 10% charcoal-stripped fetal bovine serum for 48 hours in 6-well tissue culture plates at a density of 500,000 cells per well. Cells were treated with the indicated compounds for six hours, washed with PBS, and whole cell lysates were prepared in RIPA buffer (Teknova, Hollister, Calif.). Cell lysates were clarified by centrifugation at 20,000 relative centrifugal force, 4° C., and protein was quantified using the BCA Protein Assay Kit (Pierce, Rockford, Ill.). Equal amounts of protein lysates were separated by SDS-PAGE using a 4-12% Bis-Tris polyacrylamide gel (Life Technologies) and transferred to a nitrocellulose membrane and incubated with antibodies against total and phospho-AKT, phospho-PRAS40, total and phospho-S6, androgen receptor, and FKBP5. Following incubation with primary antibody, blots were washed and incubated with IRDye-800 anti-mouse or IRDye-680 anti-rabbit antibodies for 1 h. Following thorough washing, blots were analyzed using an infrared imaging system (LI-COR).

phospho-S6 = assay: Immunoblot assay, phospho-S6; type: cell-based; conditions: LNCaP cells, Compound B 3 or 10 uM alone or with compound A 3 uM, 0.1 nM R1881, six hours

Sequence of androgen receptor (P10275 whole entry, species assumed): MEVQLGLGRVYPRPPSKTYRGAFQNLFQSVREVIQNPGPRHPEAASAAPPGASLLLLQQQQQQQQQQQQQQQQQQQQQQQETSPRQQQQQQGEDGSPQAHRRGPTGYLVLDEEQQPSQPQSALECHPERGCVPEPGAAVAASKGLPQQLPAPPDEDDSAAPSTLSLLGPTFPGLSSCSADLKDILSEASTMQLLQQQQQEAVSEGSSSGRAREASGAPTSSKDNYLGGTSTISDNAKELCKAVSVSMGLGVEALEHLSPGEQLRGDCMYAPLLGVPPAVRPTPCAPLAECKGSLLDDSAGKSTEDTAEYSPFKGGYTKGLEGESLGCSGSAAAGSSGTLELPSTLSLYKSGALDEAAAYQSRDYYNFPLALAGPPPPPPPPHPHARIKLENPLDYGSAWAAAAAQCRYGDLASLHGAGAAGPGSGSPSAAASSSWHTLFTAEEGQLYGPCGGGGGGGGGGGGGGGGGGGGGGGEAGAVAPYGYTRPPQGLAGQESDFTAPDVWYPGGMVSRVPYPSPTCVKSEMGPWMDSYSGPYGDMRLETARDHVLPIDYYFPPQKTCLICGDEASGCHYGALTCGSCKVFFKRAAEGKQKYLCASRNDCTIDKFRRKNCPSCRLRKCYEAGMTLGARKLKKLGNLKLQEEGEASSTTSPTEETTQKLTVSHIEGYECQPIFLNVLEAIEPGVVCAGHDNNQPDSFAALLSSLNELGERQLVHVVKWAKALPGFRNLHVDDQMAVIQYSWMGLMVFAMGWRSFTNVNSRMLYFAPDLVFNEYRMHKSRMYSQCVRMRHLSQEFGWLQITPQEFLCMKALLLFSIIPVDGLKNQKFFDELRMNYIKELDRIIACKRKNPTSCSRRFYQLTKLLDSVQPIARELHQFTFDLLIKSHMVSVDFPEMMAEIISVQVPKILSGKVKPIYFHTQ

Compound: CNC(=O)c1ccc(N2C(=S)N(c3ccc(C#N)c(C(F)(F)F)c3)C(=O)C2(C)C)cc1F [Compound A, 4-(3-(4-Cyano-3-(trifluoromethyl)phenyl)-5,5-dimethyl-4-oxo-2-thioxoimidazolidin-1-yl)-2-fluoro-N-methylbenzamide]
- LNCaP cell growth [1]: inhibited
- induction of caspase 3/7 activity (LNCaP cells): minimal induction

Compound: CC(O)c1cc(C(=O)N[C@@H](C)Cn2ccc(-c3ccc(C#N)c(Cl)c3)n2)[nH]n1 (some centres unmarked) [ODM-201]
- anti-proliferative activity in prostate cancer xenograft models [2]: anti-proliferative activity
- affinity for the androgen receptor (androgen receptor): high affinity

Compound: Cc1c(Cn2c(C)nc3c(C(=O)O)cc(N4CCOCC4)cc32)cccc1C(F)(F)F [Compound B, 2-methyl-1-{[2-methyl-3-(trifluoromethyl)phenyl]methyl}-6-(4-morpholinyl)-1H-benzimidazole-4-carboxylic acid]
- LNCaP cell growth [1]: inhibited the growth
- AKT phosphorylation (phospho-AKT): inhibited AKT phosphorylation
- phospho-S6 (phospho-S6): inhibition of phospho-S6
- induction of caspase 3/7 activity (LNCaP cells): minimal induction
